Values of other authors in PMC12150326 (The Journal of Organic Chemistry, 2025).
Several values for one entry are separate records, joined by “and”; a condition that tells them apart may be missing. Equal entries are not always repeated. Where two headings read alike, the source gives them in different places.

What was measured:
Parameters in all cases: method as in NCI-60 database
[1] = system: DU-145; conditions: DU-145 ref NCI-60 database, cited from earlier work
[2] = system: RPMI-8226; conditions: RPMI-8226 ref NCI-60 database, cited from earlier work
[3] = system: SF-539; conditions: SF-539 ref NCI-60 database, cited from earlier work
[4] = system: SN12C; conditions: SN12C ref NCI-60 database, cited from earlier work
[5] = system: KM12; conditions: cited from earlier work
[6] = system: COLO 205; conditions: COLO 205 ref NCI-60 database, cited from earlier work
[7] = system: MDA-N; conditions: MDA-N ref NCI-60 database, cited from earlier work
[8] = system: DLD-1; conditions: DLD-1 ref NCI-60 database, cited from earlier work
[9] = system: SR; conditions: SR ref NCI-60 database, cited from earlier work
[10] = system: HCC-2998; conditions: HCC-2998 ref NCI-60 database, cited from earlier work
[11] = system: SK-MEL-5; conditions: SK-MEL-5 ref NCI-60 database, cited from earlier work
[12] = system: EKVX; conditions: EKVX ref NCI-60 database, cited from earlier work
[13] = system: OVCAR-8; conditions: OVCAR-8 ref NCI-60 database, cited from earlier work
[14] = system: M19-MEL; conditions: M19-MEL ref NCI-60 database, cited from earlier work
[15] = system: RXF-631; conditions: RXF-631 ref NCI-60 database, cited from earlier work
[16] = system: SNB-75; conditions: SNB-75 ref NCI-60 database, cited from earlier work
[17] = system: NCI-H226; conditions: NCI-H226 ref NCI-60 database, cited from earlier work
[18] = system: HL-60(TB); conditions: HL-60(TB) ref NCI-60 database, cited from earlier work
[19] = system: MDA-MB-435; conditions: MDA-MB-435 ref NCI-60 database, cited from earlier work
[20] = KM12 ref NCI-60 database, listed as 757/9

Compound: COc1cc2c(c(OC)c1OC)-c1ccc(OC)c(=O)cc1[C@@H](NC(C)=O)CC2 [Colchicine, (−)-Colchicine]
- GI50 [1]: 8320 nM
- Log10GI50 [1]: -5.08 Molar
- Log10LC50 [1]: > -4.00 Molar
- Log10GI50 ([1]; listed as 757/9): -7.29 Molar
- Log10TGI ([1]; listed as 757/9): -5.83 Molar
- Log10GI50 ([1]; listed as 757/21): -5.08 Molar
- Log10TGI ([1]; listed as 757/21): > -4.00 Molar
- GI50 [2]: < 10 nM
- Log10GI50 [2]: < -8 Molar
- Log10LC50 [2]: > -4.00 Molar
- Log10TGI [2]: > -4.00 Molar
- Log10GI50 ([2]; listed as 757/1): < -8.00 Molar
- GI50 [3]: 30 nM
- Log10GI50 [3]: -7.54 Molar
- Log10GI50 ([3]; listed as 757/1): -7.48 Molar
- Log10TGI ([3]; listed as 757/9): -6.82 Molar
- Log10LC50 ([3]; listed as 757/21): > -4.00 Molar and -4.05 Molar
- GI50 [4]: 54 nM
- Log10GI50 [4]: -7.27 Molar
- Log10LC50 [4]: > -4.00 Molar
- Log10GI50 ([4]; listed as 757/9): < -8.00 Molar
- Log10GI50 ([4]; listed as 757/21): -7.33 Molar and -7.28 Molar and -7.27 Molar
- Log10TGI ([4]; listed as 757/21): > -4.00 Molar and -4.21 Molar
- GI50 ([5]; KM12 (printed KM29) ref NCI-60 database): 40 nM
- Log10GI50 ([5]; KM12 ref NCI-60 database): -7.35 Molar
- Log10GI50 ([5]; KM12 ref NCI-60 database, listed as 757/1): -7.65 Molar
- Log10GI50 [5, 20]: -7.67 Molar
- Log10LC50 [5, 20]: -7.04 Molar
- Log10TGI [5, 20]: -7.95 Molar
- Log10LC50 ([5]; KM12 ref NCI-60 database, listed as 757/21): > -4.00 Molar
- GI50 [6]: 10 nM
- Log10GI50 [6]: -7.83 Molar
- Log10GI50 ([6]; listed as 757/1): -5.74 Molar
- Log10GI50 ([6]; listed as 757/21): < -8.00 Molar and -7.83 Molar
- Log10LC50 ([6]; listed as 757/21): -7.24 Molar
- Log10TGI ([6]; listed as 757/21): -7.89 Molar
- Log10GI50 [7]: < -8.00 Molar
- Log10LC50 [7]: > -4.00 Molar
- Log10TGI ([7]; listed as 757/9): < -8.00 Molar and -7.91 Molar
- Log10TGI ([7]; listed as 757/21): -4.25 Molar
- Log10LC50 [8]: > -4.00 Molar
- Log10TGI [8]: > -4.00 Molar
- Log10GI50 ([8]; listed as 757/1): -7.35 Molar
- GI50 [9]: 30 nM
- Log10GI50 [9]: -7.49 Molar
- Log10LC50 [9]: > -4.00 Molar
- Log10GI50 ([9]; listed as 757/9): < -8.00 Molar
- Log10TGI ([9]; listed as 757/9): -7.47 Molar
- Log10TGI ([9]; listed as 757/21): > -4.00 Molar
- GI50 [10]: 30 nM
- Log10GI50 [10]: -7.51 Molar
- Log10LC50 [10]: > -4.00 Molar
- Log10GI50 ([10]; listed as 757/1): -7.48 Molar
- Log10GI50 ([10]; listed as 757/9): -7.78 Molar
- Log10TGI ([10]; listed as 757/9): -7.59 Molar and -7.33 Molar
- GI50 [11]: < 10 nM
- Log10GI50 [11]: < -8 Molar
- Log10GI50 ([11]; listed as 757/1): -7.61 Molar
- Log10TGI ([11]; listed as 757/9): -7.58 Molar
- Log10GI50 ([11]; listed as 757/21): < -8.00 Molar
- Log10LC50 ([11]; listed as 757/21): > -4.00 Molar
- GI50 [12]: > 100000 nM
- Log10GI50 [12]: > -4 Molar
- Log10LC50 [12]: > -4.00 Molar
- Log10TGI [12]: > -4.00 Molar
- Log10GI50 ([12]; listed as 757/21): > -4.00 Molar
- Log10TGI ([13]; listed as 757/1): > -4.00 Molar
- Log10LC50 ([13]; listed as 757/9): -7.11 Molar
- Log10LC50 ([13]; listed as 757/21): > -4.00 Molar
- Log10LC50 [14]: > -4.00 Molar
- Log10TGI [14]: > -4.00 Molar
- Log10GI50 ([14]; listed as 757/21): < -8.00 Molar
- Log10LC50 [15]: > -4.00 Molar
- Log10TGI [15]: > -4.00 Molar
- Log10GI50 ([15]; listed as 757/21): -7.45 Molar
- GI50 [16]: 910 nM
- Log10GI50 [16]: -6.04 Molar
- Log10LC50 [16]: > -4.00 Molar
- Log10GI50 ([16]; listed as 757/1): < -8.00 Molar
- Log10TGI ([16]; listed as 757/1): -5.53 Molar
- Log10TGI ([16]; listed as 757/9): < -8.00 Molar
- Log10TGI ([16]; listed as 757/21): > -4.00 Molar
- GI50 [17]: 30 nM
- Log10GI50 [17]: -7.56 Molar
- Log10LC50 [17]: > -4.00 Molar
- Log10TGI ([17]; listed as 757/1): > -4.00 Molar
- Log10GI50 ([17]; listed as 757/9): -7.18 Molar
- Log10TGI ([17]; listed as 757/9): -7.35 Molar
- GI50 [18]: 10 nM
- Log10GI50 [18]: -7.89 Molar
- Log10LC50 [18]: > -4.00 Molar
- Log10GI50 ([18]; listed as 757/1): -7.58 Molar
- Log10GI50 ([18]; listed as 757/21): < -8.00 Molar and -7.89 Molar
- GI50 [19]: < 10 nM
- Log10GI50 [19]: < -8 Molar
- Log10LC50 ([19]; listed as 757/9): < -8.00 Molar
- Log10TGI ([19]; listed as 757/9): < -8.00 Molar
- Log10GI50 ([19]; listed as 757/21): < -8.00 Molar
- Log10LC50 ([19]; listed as 757/21): > -4.00 Molar
- Log10TGI ([19]; listed as 757/21): -7.50 Molar
